Data taken from patent US8685636B2, “Heparin-insensitive method for determining direct coagulation factor inhibitors” (Siemens Healthcare Diagnostics Products GmbH, priority 2011, dated 2014).
Each block holds one compound with its values, some of them ahead of it.

Columns and labels:
human factor Xa = human factor Xa (Homo sapiens, UniProt P00742); assay: Chromogenic factor Xa inhibition assay in plasma samples pretreated with oxidizing agent (sodium hypochlorite) and neutralizing agent (HCl); type: biochemical; details: for ΔA/min (conversion of chromogenic factor Xa substrate): plasma without inhibitor 2268
human factor Xa, sequence (P00742 235-488 limits assumed): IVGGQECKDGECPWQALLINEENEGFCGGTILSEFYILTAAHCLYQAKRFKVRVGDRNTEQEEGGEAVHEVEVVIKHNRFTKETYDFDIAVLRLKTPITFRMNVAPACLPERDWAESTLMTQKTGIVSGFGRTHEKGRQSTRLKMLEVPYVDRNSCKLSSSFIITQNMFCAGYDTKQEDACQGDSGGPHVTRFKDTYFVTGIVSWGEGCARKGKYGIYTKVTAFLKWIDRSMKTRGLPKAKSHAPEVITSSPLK
human factor Xa, sequence (P00742 41-179 partner limits assumed): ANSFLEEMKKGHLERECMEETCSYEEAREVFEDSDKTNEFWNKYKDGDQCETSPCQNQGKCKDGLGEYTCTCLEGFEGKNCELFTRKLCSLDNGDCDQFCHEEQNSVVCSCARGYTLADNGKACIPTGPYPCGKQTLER
Method: (§1) Various amounts of direct coagulation factor inhibitors (rivaroxaban as direct factor Xa inhibitor, argatroban as direct thrombin inhibitor) or indirect coagulation factor inhibitors (fondaparinux pentasaccharide [Arixtra®], high-molecular-weight heparin [HMWH]) were added to normal human plasma.
(§2) 20 μl of plasma sample were mixed with 10 μl of a 0.1% strength hypochlorous acid (sodium hypochlorite) as oxidizing agent, and the reaction mix was incubated at +37° C. for 30 seconds. Subsequently, 10 μl of a 0.1% strength hydrochloric acid solution were added to the reaction mix to neutralize the oxidizing agent, and the reaction mix was incubated at +37° C. for 30 seconds. Subsequently, 95 μl of factor Xa reagent (human factor Xa, 1 U/ml in TRIS buffer, pH 8.0) were added to the reaction mix, and the reaction mix was incubated at +37° C. for 30 seconds. Subsequently, 80 μl of a chromogenic factor Xa substrate (Z-D-Leu-Gly-Arg-ANBA-methylamide, 4 mmol/l) were added to the reaction mix, and conversion of the substrate (in ΔA/time) was determined at a wavelength of 405 nm in an automated coagulation measurement instrument (BCS® System, Siemens Healthcare Diagnostics).
(§3) The reduction in substrate conversion compared to plasma without any inhibitors correlates with the amount of inhibitor in the sample.

bovine thrombin = bovine thrombin (Bos taurus, UniProt P00735); assay: Chromogenic thrombin inhibition assay in plasma samples pretreated with oxidizing agent (sodium hypochlorite) and neutralizing agent (HCl); type: biochemical; details: for ΔA/min (conversion of chromogenic thrombin substrate): plasma without inhibitor 2623
Method: as §1
as §2, with “140” for “95”, “thrombin” for “factor Xa”, “(bovine thrombin, 6 U/ml)” for “(human factor Xa, 1 U/ml in TRIS buffer, pH 8.0)”, “50” for “80”, “(Tos-L-Gly-Pro-Arg-ANBA-isopropylamide,” for “(Z-D-Leu-Gly-Arg-ANBA-methylamide,”
as §3

[1] = 20 μg/ml in normal human plasma, pretreated sample
[2] = plasma samples containing the substance
[3] = 200 μg/ml in normal human plasma, pretreated sample
[4] = pretreatment with hypochlorite then HCl
[5] = 200 ng/ml in normal human plasma, pretreated sample

ΔA/min (conversion of chromogenic factor Xa substrate) (human factor Xa; [1]): 2176 ΔA/min
inhibition at 20 µg/mL (human factor Xa; 20 μg/ml in normal human plasma, pretreated sample, read-out: FXa inhibition): 4%
factor Xa inhibition (in words) (human factor Xa; [2]): factor Xa inhibition does not take place
inhibition at 20 µg/mL (bovine thrombin; [1]): 95%
ΔA/min (conversion of chromogenic thrombin substrate) (bovine thrombin; [1]): 140 ΔA/min
inhibition at 200 µg/mL (bovine thrombin; [3]): 99%
ΔA/min (conversion of chromogenic thrombin substrate) (bovine thrombin; [3]): 36 ΔA/min
effect of pretreatment of the samples on the inhibition of thrombin by the substance (in words) (bovine thrombin; [4]): not impaired
SMILES: CC1CNc2c(cccc2S(=O)(=O)N[C@@H](CCCNC(=N)N)C(=O)N2CC[C@@H](C)C[C@@H]2C(=O)O)C1 (stereo partly drawn) [argatroban]

ΔA/min (conversion of chromogenic factor Xa substrate) (human factor Xa; [5]): 1296 ΔA/min
inhibition at 0.2 µg/mL (human factor Xa; 200 ng/ml in normal human plasma, pretreated sample, read-out: FXa inhibition): 43%
effect of pretreatment of the samples on the inhibition of factor Xa by the substance (in words) (human factor Xa; [4]): not impaired
inhibition at 0.2 µg/mL (bovine thrombin; [5]): 0%
ΔA/min (conversion of chromogenic thrombin substrate) (bovine thrombin; [5]): 2612 ΔA/min
thrombin inhibition (in words) (bovine thrombin; [2]): thrombin inhibition does not take place
SMILES: O=C(NC[C@H]1CN(c2ccc(N3CCOCC3=O)cc2)C(=O)O1)c1ccc(Cl)s1 [rivaroxaban]

inhibition at 1 µg/mL (human factor Xa; 1 μg/ml in normal human plasma, pretreated sample, read-out: FXa inhibition): 4%
inhibition at 4 µg/mL (human factor Xa; 4 μg/ml in normal human plasma, pretreated sample, read-out: FXa inhibition): 3%
inhibition at 1 µg/mL (bovine thrombin; 1 μg/ml in normal human plasma, pretreated sample): 5%
inhibition at 4 µg/mL (bovine thrombin; 4 μg/ml in normal human plasma, pretreated sample): 2%
SMILES: CO[C@H]1O[C@H](COS(=O)(=O)O)[C@@H](O[C@@H]2O[C@@H](C(=O)O)[C@@H](O[C@H]3O[C@H](COS(=O)(=O)O)[C@@H](O[C@@H]4O[C@H](C(=O)O)[C@@H](O[C@H]5O[C@H](COS(=O)(=O)O)[C@@H](O)[C@H](O)[C@H]5NS(=O)(=O)O)[C@H](O)[C@H]4O)[C@H](OS(=O)(=O)O)[C@H]3NS(=O)(=O)O)[C@H](O)[C@H]2OS(=O)(=O)O)[C@H](O)[C@H]1NS(=O)(=O)O [Arixtra, fondaparinux]
